Measurements reported in patent US20260125375A1 (Pfizer Inc., priority 2022, published 2026).

How the values were obtained:
CBL-B (residues 36-427) = target: T1, CBL-B (residues 36-427) (Homo sapiens, UniProt Q13191); test: Ligand Displacement Assay (LDA), HTRF competitive binding against BODIPY-labeled fluorescent tracer, CBL-B; settings: geometric mean of the number of tests, read-out: CBL-B Ki (nM) GMean
T1 construct: Purified CBL-B (residues 36-427) and C-CBL (residues 46-435) proteins from baculovirus-infected insect cells; made in house; host or cells: baculovirus-infected insect cells
Outline: (§1)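 Terbium-streptavidin donor on BirA-biotinylated, AviTagged protein from baculovirus-infected insect cells; BODIPY tracer as acceptor. Compound titrations were three-fold and duplicated, […] with 2% DMSO final.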

C-CBL (residues 46-435) = target: T2, C-CBL (residues 46-435) (Homo sapiens, UniProt P22681); test: Ligand Displacement Assay (LDA), HTRF competitive binding against BODIPY-labeled fluorescent tracer, C-CBL; settings: geometric mean of the number of tests, read-out: C-CBL Ki (nM) GMean
T2 construct: Purified CBL-B (residues 36-427) and C-CBL (residues 46-435) proteins from baculovirus-infected insect cells; made in house; host or cells: baculovirus-infected insect cells
T2 sequence (P22681 46-435): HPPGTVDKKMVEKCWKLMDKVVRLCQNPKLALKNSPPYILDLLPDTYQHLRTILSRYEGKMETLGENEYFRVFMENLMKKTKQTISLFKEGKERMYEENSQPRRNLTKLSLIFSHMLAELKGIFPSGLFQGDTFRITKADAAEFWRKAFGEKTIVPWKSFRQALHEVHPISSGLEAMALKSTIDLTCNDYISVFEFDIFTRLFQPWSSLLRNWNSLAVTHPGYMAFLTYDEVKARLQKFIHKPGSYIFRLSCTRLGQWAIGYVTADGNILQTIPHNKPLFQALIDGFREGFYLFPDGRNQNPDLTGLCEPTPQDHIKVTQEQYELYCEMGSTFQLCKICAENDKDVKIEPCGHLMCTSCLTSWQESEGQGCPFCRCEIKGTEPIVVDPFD
Outline: as §1

C-CBL (46-435) = target: T3, C-CBL (46-435) (Homo sapiens, UniProt P22681); test: Surface Plasmon Resonance (SPR) assay, binding affinity and kinetics, C-CBL; settings: SPR at 10° C., biotinylated C-CBL (46-435) on streptavidin chip; geometric mean; read-out: C-CBL SPR Kd (nM) GMean
T3 construct: N-terminal biotinylated WT CBL-B (36-427) and C-CBL (46-435) were captured on a streptavidin (SA) coated sensor chip
T3 sequence (P22681 46-435): T2 sequence (P22681 46-435)
Outline: (§2)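 SPR kinetics at 10° C, run either single-cycle (0.001–1 μM, 3-fold, 6 points, 120 s on, >5400 s off) or multi-cycle (10 points, 2-fold, top 10 or 100 μM, 90 s on). Proteins were N-biotinylated CBL-B (36-427) and C-CBL (46-435) on SA surfaces, in pH 7.2 HEPES, 2% DMSO.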

WT CBL-B (36-427) = target: T4, WT CBL-B (36-427) (Homo sapiens, UniProt Q13191); test: Surface Plasmon Resonance (SPR) assay, binding affinity and kinetics, CBL-B; settings: SPR at 10° C., biotinylated WT CBL-B (36-427) on streptavidin chip; geometric mean; read-out: CBL-B SPR Kd (nM) GMean
T4 construct: N-terminal biotinylated WT CBL-B (36-427) and C-CBL (46-435) were captured on a streptavidin (SA) coated sensor chip
Outline: as §2

| SMILES | Ki (CBL-B (residues 36-427)) [nM] | Ki (C-CBL (residues 46-435)) [nM] | Kd (C-CBL (46-435)) [nM] | Kd (WT CBL-B (36-427)) [nM] |
| --- | --- | --- | --- | --- |
| Cn1cnnc1[C@@H](c1cccc(-c2n[nH]c3c(CNC4CCNC(=O)C4)nc(C(F)(F)F)cc23)c1)C1CCC1 (single isomer, unassigned) [Example C88] | 7.2 | 132 | 59.7 | 4.8 |
| C[C@H](c1nc(C(F)(F)F)cc2c(-c3cccc(C4(Cc5nncn5C)COC4)c3)n[nH]c12)N(C)C (single isomer, unassigned) [Example D40] | 23.9 | 98.1 | 88.5 | 5.5 |
| CC(O)c1nc(C(F)(F)F)cc2c(-c3cccc(C4(Cc5nncn5C)COC4)c3)n[nH]c12 (single isomer, unassigned) [Example K11, (1ξ)-1-[3-(3-{3-[(4-methyl-4H-1,2,4-triazol-3-yl)methyl]oxetan-3-yl}phenyl)-5-(trifluoromethyl)-1H-pyrazolo[3,4-c]pyridin-7-yl]ethan-1-ol] | 31.2 | 119 | 199 | 11.7 |
| CCNCc1nc(C(F)(F)F)cc2c(-c3cccc([C@H](c4nncn4C)C4CCC4)c3)n[nH]c12 [Example D81] | 25.7 | 191 | 206 | 5.6 |
| Cn1cnnc1[C@@H](c1cccc(-c2n[nH]c3c(CO)nc(C(F)(F)F)cc23)c1)C1CCC1 [Example K9, [3-{3-[(R)-cyclobutyl(4-methyl-4H-1,2,4-triazol-3-yl)methyl]phenyl}-5-(trifluoromethyl)-1H-pyrazolo[3,4-c]pyridin-7-yl]methanol] | 45.4 | 328 | 298 | 12.7 |
| CNc1nc(C(F)(F)F)cc2c(-c3cccc(C4(Cc5nncn5C)COC4)c3)n[nH]c12 [Example J8, N-methyl-3-(3-{3-[(4-methyl-4H-1,2,4-triazol-3-yl)methyl]oxetan-3-yl}phenyl)-5-(trifluoromethyl)-1H-pyrazolo[3,4-c]pyridin-7-amine] | 69.3 | 251 | 136 | 16.1 |
| C[C@@H](CO)c1nc(C(F)(F)F)cc2c(-c3cccc([C@H](c4nncn4C)C4CCC4)c3)n[nH]c12 (single isomer, unassigned) [Example K4, (2ξ)-2-[3-{3-[(ξ)-cyclobutyl(4-methyl-4H-1,2,4-triazol-3-yl)methyl]phenyl}-5-(trifluoromethyl)-1H-pyrazolo[3,4-c]pyridin-7-yl]propan-1-ol] | 17.6 | 156 | 207 | 8.3 |
| CC(N[C@@H]1CCOC1)c1nc(C(F)(F)F)cc2c(-c3cccc(C4(Cc5nncn5C)COC4)c3)n[nH]c12 (single isomer, unassigned) [Example C86] | 9 | 49.4 | 60.3 | 5.1 |
| Cn1cnnc1[C@@H](c1cccc(-c2n[nH]c3c(CNC4CCOCC4)nc(C(F)(F)F)cc23)c1)C1CCC1 [Example D85] | 23.4 | 237 | 241 | 6.9 |
| Cn1cnnc1[C@@H](c1cccc(-c2n[nH]c3c(CN4CCOCC4)nc(C(F)(F)F)cc23)c1)C1CCC1 [Example D96] | 41.9 | 377 | 120 | 5.5 |
| C[C@H](Cc1nncn1C)c1cccc(-c2n[nH]c3cnc(C(F)(F)F)cc23)c1 [Example N1, 3-{3-[(2R)-1-(4-methyl-4H-1,2,4-triazol-3-yl)propan-2-yl]phenyl}-5-(trifluoromethyl)-1H-pyrazolo[3,4-c]pyridine] | 70 | 249 | 275 | 35.8 |
| Cn1cnnc1CC1(c2cccc(-c3n[nH]c4c(CN5CC(F)(F)C5)nc(C(F)(F)F)cc34)c2)COC1 [Example C69, 7-[(3,3-difluoroazetidin-1-yl)methyl]-3-(3-{3-[(4-methyl-4H-1,2,4-triazol-3-yl)methyl]oxetan-3-yl}phenyl)-5-(trifluoromethyl)-1H-pyrazolo[3,4-c]pyridine] | 34.5 | 185 | 208 | 30.2 |
| C[C@@H](c1nc(C(F)(F)F)cc2c(-c3cccc(C4(Cc5nncn5C)COC4)c3)n[nH]c12)N1CCC1 (single isomer, unassigned) [Example D41] | 18.5 | 65.5 | 50.8 | 6.2 |
| Cn1cnnc1[C@@H](c1cccc(-c2n[nH]c3c(CNC4CCC4)nc(C(F)(F)F)cc23)c1)C1CCC1 [Example C105, N-{[3-{3-[(R)-cyclobutyl(4-methyl-4H-1,2,4-triazol-3-yl)methyl]phenyl}-5-(trifluoromethyl)-1H-pyrazolo[3,4-c]pyridin-7-yl]methyl}cyclobutanamine] | 29.4 | 244 | 132 | 4.2 |
| C[C@H](c1nc(C(F)(F)F)cc2c(-c3cccc(C4(Cc5nncn5C)COC4)c3)n[nH]c12)N1CCNCC1 (single isomer, unassigned) [Example D54] | 20.9 | 80 | 61.7 | 8.2 |
| Cn1cnnc1CC1(c2cccc(-c3n[nH]c4cnc(Cl)cc34)c2)COC1 [Example B8, 5-chloro-3-(3-{3-[(4-methyl-4H-1,2,4-triazol-3-yl)methyl]oxetan-3-yl}phenyl)-1H-pyrazolo[3,4-c]pyridine] | 28.6 | 142 | 180 | 15.9 |
| CC(CN)c1nc(C(F)(F)F)cc2c(-c3cccc([C@H](c4nncn4C)C4CCC4)c3)n[nH]c12 (single isomer, unassigned) [Example K15] | 30.1 | 263 | 452 | 23.9 |
| Cn1cnnc1CC1(c2cccc(-c3n[nH]c4c(CN5CC(F)C5)nc(C(F)(F)F)cc34)c2)COC1 [Example C65, 7-[(3-fluoroazetidin-1-yl)methyl]-3-(3-{3-[(4-methyl-4H-1,2,4-triazol-3-yl)methyl]oxetan-3-yl}phenyl)-5-(trifluoromethyl)-1H-pyrazolo[3,4-c]pyridine] | 21.8 | 126 | 127 | 4.9 |
| C[C@@H](c1nc(C(F)(F)F)cc2c(-c3cccc(C4(Cc5nncn5C)COC4)c3)n[nH]c12)N(C)C (single isomer, unassigned) [Example D39] | 42.1 | 229 | 164 | 14.9 |
| Cn1cnnc1[C@@H](c1cccc(-c2n[nH]c3c(CN[C@H]4CCC[C@H]4O)nc(C(F)(F)F)cc23)c1)C1CCC1 [Example C122, (1R,2S)-2-({[3-{3-[(R)-cyclobutyl(4-methyl-4H-1,2,4-triazol-3-yl)methyl]phenyl}-5-(trifluoromethyl)-1H-pyrazolo[3,4-c]pyridin-7-yl]methyl}amino)cyclopentan-1-ol] | 29.2 | 294 | 146 | 5.5 |
| Cn1cnnc1CC1(c2cccc(-c3n[nH]c4c(CN[C@H]5CCOC5)nc(C(F)(F)F)cc34)c2)COC1 [Example C50] | 24.7 | 90 | 145 | 14.5 |
| Cn1cnnc1[C@@H](c1cccc(-c2n[nH]c3c(CN4CC[C@@H](F)C4)nc(C(F)(F)F)cc23)c1)C1CCC1 [Example C109, 3-{3-[(R)-cyclobutyl(4-methyl-4H-1,2,4-triazol-3-yl)methyl]phenyl}-7-{[(3R)-3-fluoropyrrolidin-1-yl]methyl}-5-(trifluoromethyl)-1H-pyrazolo[3,4-c]pyridine] | 48.8 | 442 | 174 | 8.8 |
| Cn1cnnc1CC1(c2cccc(-c3n[nH]c4cnc(C5CC5)cc34)c2)COC1 [Example B4, 5-cyclopropyl-3-(3-{3-[(4-methyl-4H-1,2,4-triazol-3-yl)methyl]oxetan-3-yl}phenyl)-1H-pyrazolo[3,4-c]pyridine] | 73.9 | 254 | 578 | 58.7 |
